The source of these data is publication PMC5409245, “An albumin-based tumor-targeted oxaliplatin prodrug with distinctly improved anticancer activity in vivo” (Chemical Science, 2016).

Data set [1] is described as follows: Stability in aqueous solution by analytical RP-HPLC. The class given is physicochemical. How it is done: The stability of the compounds in aqueous solution was monitored over several hours using analytical RP-HPLC. […] Thus, the hydrolysis can be clearly attributed to the maleimide moiety.
(§1) RP-HPLC stability and binding studies
(§2) To determine the stability, especially of the maleimide-function, 0.5 mM solutions of the complexes were prepared in triple distilled water and measured repeatedly over several hours. For determination of the binding rate towards human serum albumin (HSA), freshly prepared 1 mM aqueous solutions of a compound and HSA were mixed 1:1 and also measured repeatedly over several hours. All studies were carried out using a reversed-phase Waters XBridge C18 column on a Dionex Summit System. Milli-Q water, containing 0.1% formic acid, and methanol were used as eluents and a standard gradient from 5–95% methanol in 20 minutes was chosen. The autosampler, where the samples were incubated, was temperature controlled at 20°C and the column at 25°C. The loss of the complexes was monitored via UV-VIS detector at 225 nm and evaluated by the decrease of the compound […]
(§3) For sample preparation compounds 7– 14 were incubated separately in FCS. […] The samples were then stored in the autosampler at 37°C for 21 h and analyzed

Data set [2] deals with T1, human serum albumin (HSA) (Homo sapiens, UniProt P02768).
T1 construct: purchased Sigma Aldrich
Put plainly: Albumin-binding rate by RP-HPLC (decrease of unbound drug peak area). The settings on record: 1 eq. of HSA used. The protocol:
Next, the binding of the maleimide-functionalized complexes to the thiol group of human serum albumin (HSA) was investigated. Therefore, compounds 7–8 and 11–12 were incubated with HSA and the decrease of the peak area of the unbound drug was monitored (Fig. 2B, Table S19 ^†).
as §1, §2, §3

Data set [3] deals with T2, albumin fraction of fetal calf serum (Bos taurus, UniProt P02769).
T2 construct: from tissue; host or cells: fetal calf serum (whole serum)
Kind of data set: Binding studies in fetal calf serum by SEC-ICP-MS. The note with it: 37 °C. The class given is in vitro ADME. How it is done:
To ascertain the actual binding target, the binding rate and the stability of the formed species under biological conditions, the compounds were incubated with fetal calf serum at 37 °C and sulfur- and platinum-containing (macro)molecules were measured with size exclusion chromatography inductively coupled plasma mass spectrometry (SEC-ICP-MS) over 21 h. Already at the first scan (∼5–10 min after incubation) ∼50% of the maleimide-containing compounds 7–8 and 11–12 were bound to the albumin fraction at 7.6 min (see Table S11 ^† for the corresponding size ladder). At the next time point after 140 min, in all cases, >80% of the drug was bound to albumin. […] Thus, the fast as well as specific binding to serum albumin was verified. […]
To determine the stability, especially of the maleimide-function, 0.5 mM solutions of the complexes were prepared in triple distilled water and measured repeatedly over several hours. For determination of the binding rate towards human serum albumin (HSA), freshly prepared 1 mM aqueous solutions of a compound and HSA were mixed 1:1 and also measured repeatedly over several hours. […] The loss of the complexes was monitored via UV-VIS detector at 225 nm and evaluated by the decrease of the compound […]
For sample preparation compounds 7– 14 were incubated separately in FCS. […] The samples were then stored in the autosampler at 37°C for 21 h and analyzed […]

Data set [4] is described as follows: Reduction with ascorbic acid monitored by RP-HPLC and 1H-NMR. The class given is physicochemical. The settings on record: 1 mM complex, 10 equivalents ascorbic acid, phosphate buffer pH = 7.4. The protocol:
As one explanation of the observed differences between the compounds might be altered reducibility, we investigated the reduction rate in the presence of ascorbic acid in phosphate-buffered solution at pH = 7.4 using NMR spectroscopy and HPLC measurements. To reduce the number of additional signals from hydrolyzed maleimide species in the spectra, only the succinimide-functionalized compounds 9–10 and 13–14 were evaluated in these experiments (Fig. 7 and S6 ^†). For both NMR and HPLC measurements, the same complex concentrations (1 mM) and 10 equivalents ascorbic acid were used. […] Overall, there is a strong correlation between the reduction data and the in vivo activity. As such, the fast reduction of the cisplatin derivatives correlates with the low in vivo activity of 8 and relatively low plasma levels after 24 h. […]
1 mM solutions of the succinimide derivatives 9– 10 and 13–14 in 100 mM phosphate buffer (pH=7.4) were freshly prepared, mixed with 10 mM solutions of ascorbic acid in 100 mM phosphate buffer (pH=7.4) and measured by RP-HPLC every hour for up to 24 h. […] The reduction of the compound was monitored via UV-VIS detector at 225 nm and evaluated by the decrease of the initial compound peak area. […]

Data set [5] in a line: Serum platinum levels 24 h after single treatment (SEC-ICP-MS and FI-ICP-MS). The class given is in vivo, BALB/c mice. The text has this:
It is well accepted that albumin targeting distinctly impacts on the plasma half-life time as well as tissue distribution.[36] Especially, the enhanced accumulation due to the EPR effect makes this form of tumor-targeting very interesting for the development of novel cancer therapeutics.[13] As our novel compounds have a double prodrug nature (albumin-binding and the need of activation by reduction), we were interested in the drug tissue distribution after treatment. To this end, male CT-26-bearing BALB/c mice were treated once with our compounds followed by sample collection 24 h later. […] In accordance to many other non-targeted drugs,[37]–[40] for both platinum(II) drugs the intratumoral drug levels were distinctly lower than in the liver and kidney (which usually have very high drug levels due to their important function in metabolism and excretion).
Mice were treated once i.v. with 9 mg kg^–1 oxaliplatin and the equimolar concentrations in the case of 11 and 12 as well as 3 mg kg^–1 cisplatin and an equimolar dose in the case of 8. After 24 h, animals were anesthetized, sacrificed by heart puncture and tumor, liver, kidney tissue as well as serum were collected. Each experimental group contained four animals. (A) Organ platinum-distribution measured by ICP-MS. Data are expressed as mean ± standard deviation. (B) Platinum-SEC-ICP-MS measurements of serum samples (C) serum platinum levels measured by FI-ICP-MS. Data are expressed as mean ± standard deviation.
Table S10 : Column recovery.
Drug Conc. (µM) SD Column SD
A protein/amino acid mix was prepared to assess the separation performance of the applied SEC-HPLC setup. The mixture contained HSA, myoglobin, GSSG, and methionine. It has to be mentioned that HSA is forming dimers over time. However, the separation of the monomer and the dimer of HSA cannot be resolved with this chromatographic column.
Table S11 : Resulting size ladder.
SEC-ICP-MS measurements of in vivo serum samples
The ICP-QMS iCAP Thermo Scientific (Bremen, Germany) was used. Oxygen (purity 4.5, Linde Gas GmbH, Vienna, Austria) was used as reaction gas. The ICP-MS operation parameters are […]
Table S12 : ICP-MS operation parameters.
Nebulizer gas flow: 1.01 L/min
Aux. gas flow: 0.80 L/min
Plasma gas flow: 14 L/min
Reaction gas (oxygen) flow: 0.370 mL/min
As HPLC system a Thermo Scientific Transcend HPLC system (San Jose, CA, USA) was coupled to the ICP-QMS iCAP Thermo Scientific. Qtegra Intelligent Scientific Data Solution (version 2.4.1800.33) was employed for the data treatment. HPLC chromatographic conditions are […]
Table S13 : Chromatographic conditions.
HPLC column: BioBasic SEC-60 A, 4.6x250 mm, 5µm.
Eluent: 50 mM CH3COONH4, pH = 6.0.
Column Temperature: Room temperature
Autosampler Temperature: 37°C […]

T2 sequence (P02769 25-607): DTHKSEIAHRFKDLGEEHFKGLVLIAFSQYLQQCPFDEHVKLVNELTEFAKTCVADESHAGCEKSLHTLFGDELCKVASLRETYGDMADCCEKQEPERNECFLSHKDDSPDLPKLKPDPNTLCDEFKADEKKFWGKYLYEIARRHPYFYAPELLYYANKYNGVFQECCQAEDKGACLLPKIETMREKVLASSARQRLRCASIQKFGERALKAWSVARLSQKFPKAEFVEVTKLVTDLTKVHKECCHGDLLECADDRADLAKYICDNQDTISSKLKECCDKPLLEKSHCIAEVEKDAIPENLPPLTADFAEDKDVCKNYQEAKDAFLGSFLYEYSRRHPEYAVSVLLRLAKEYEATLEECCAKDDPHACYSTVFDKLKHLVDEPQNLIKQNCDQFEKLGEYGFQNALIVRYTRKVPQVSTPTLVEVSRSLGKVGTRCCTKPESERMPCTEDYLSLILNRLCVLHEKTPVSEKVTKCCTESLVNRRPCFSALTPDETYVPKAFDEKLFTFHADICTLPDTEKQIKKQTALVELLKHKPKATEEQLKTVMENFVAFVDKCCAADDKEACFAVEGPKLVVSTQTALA
T1 sequence (P02768 25-609): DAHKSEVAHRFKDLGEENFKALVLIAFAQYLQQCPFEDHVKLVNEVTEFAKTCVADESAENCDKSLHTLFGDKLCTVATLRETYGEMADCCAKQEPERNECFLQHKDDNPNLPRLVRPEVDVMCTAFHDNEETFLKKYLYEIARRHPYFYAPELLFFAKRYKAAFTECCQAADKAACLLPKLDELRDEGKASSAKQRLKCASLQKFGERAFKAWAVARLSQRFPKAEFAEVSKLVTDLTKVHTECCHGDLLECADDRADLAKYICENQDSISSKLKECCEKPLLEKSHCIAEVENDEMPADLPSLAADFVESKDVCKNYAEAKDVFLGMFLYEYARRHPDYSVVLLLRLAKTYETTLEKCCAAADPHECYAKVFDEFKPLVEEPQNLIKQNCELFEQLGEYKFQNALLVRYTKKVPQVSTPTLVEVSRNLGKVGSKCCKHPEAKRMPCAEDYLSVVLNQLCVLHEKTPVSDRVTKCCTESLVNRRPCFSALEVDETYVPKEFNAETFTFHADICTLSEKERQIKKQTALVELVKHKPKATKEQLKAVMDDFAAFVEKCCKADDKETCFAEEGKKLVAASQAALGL

As to `C[O][Pt]([NH2])([NH2])([Cl])([Cl])[O]C(=O)NCCN1C(=O)C=CC1=O` [Compound 7, (OC-6-44)-Diamminedichloridomethoxido[2-(2,5-dioxo-2,5-dihydro-1H-pyrrol-1-yl)ethylcarbamato]platinum(IV)], in data set [1] (aqueous solution, 20°C), the “hydrolysis in aqueous solution” value is “less than 1 % h^–1”. Besides, the “Albumin-binding half-life λ1/2” value in data set [2] worked out at 5.1 h. Also, the “drug bound to the albumin fraction” value in data set [3] (100 µM, first scan (∼5–10 min after incubation)) is on record as roughly 50%.

Take `CC(=O)[O][Pt]([NH2])([NH2])([Cl])([Cl])[O]C(=O)NCCN1C(=O)CCC1=O` [Compound 10]: in data set [1] (over a period of 24 hours), the “changes in aqueous solution” value is “no changes”. In addition, the protein binding ability entry in data set [3] (during 21 h) is reported as “negligible protein binding ability”. Besides, in data set [4], the “reduction by ascorbic acid, cisplatin-derived vs oxaliplatin-based” value is “reduced much faster” and the “stability towards reduction, acetato vs methoxido ligand” value was “more stable”.

Regarding `N.N.[Cl][Pt][Cl]` [cisplatin], the “Pt conc. in serum” value is 48 µg/L in data set [5] (Mouse #1, serum 24 h after single i.v. treatment); 46 µg/L in data set [5] (Mouse #2, serum 24 h after single i.v. treatment); 43 µg/L in data set [5] (Mouse #3, serum 24 h after single i.v. treatment); 44 µg/L in data set [5] (Mouse #4, serum 24 h after single i.v. treatment).
